Patent publication US20090203697A1, “HETEROCYCLIC TYPE CINNAMIDE DERIVATIVE” (priority 2006, published 2009)

Tested on: Aβ42 production
Assay: Quantification of Aβ peptide in neuronal culture from rat fetus brain (Aβ ELISA)
Assay type: cell-based
Conditions: 72 h; rat primary neuronal culture (cerebral cortex, embryonic day 18 Wistar rats); medium collected three days after addition of the compound; Aβx-42 ELISA; read-out: Aβ42 production reducing effect IC50
Procedure: Quantification of Aβ Peptide in Neuronal Culture from Rat Fetus Brain
(1) Rat Primary Neuronal Culture
Primary neuronal cultures were prepared from the cerebral cortex of embryonic day 18 Wistar rats (Charles River Japan, Yokohama, Japan). Specifically, the embryos were aseptically removed from pregnant rats under ether anesthesia. The brain was isolated from the embryo and immersed in an ice-cold L-15 medium (such as Invitrogen Corp. Cat #11415-064, Carlsbad, Calif., USA, or SIGMA L1518). The cerebral cortex was collected from the isolated brain under a stereoscopic microscope. The cerebral cortex fragments collected were enzymatically treated in an enzyme solution containing 0.25% trypsin (Invitrogen Corp. Cat #15050-065, Carlsbad, Calif., USA) and 0.01% DNase (Sigma D5025, St. Louis, Mo., USA) at 37° C. for 30 minutes to disperse the cells. Here, the enzymatic reaction was stopped by adding inactivated horse serum to the solution. The enzymatically treated solution was centrifuged at 1,500 rpm for five minutes to remove the supernatant. 5 to 10 ml of a medium was added to the resulting cell mass. Neurobasal medium (Invitrogen Corp. Cat #21103-049, Carlsbad, Calif., USA) supplemented with 2% B27 supplement (Invitrogen Corp. Cat #17504-044, Carlsbad, Calif., USA), 25 μM 2-mercaptoethanol (2-ME, WAKO Cat #139-06861, Osaka, Japan), 0.5 mM L-glutamine (Invitrogen Corp. Cat #25030-0817 Carlsbad, Calif., USA), and Antibiotics-Antimycotics (Invitrogen Corp. Cat #15240-062, Carlsbad, Calif., USA) was used as the medium (Neurobasal/B27/2-ME). However, the above Neurobasal medium not supplemented with 2-ME (Neurobasal/B27) was used for the assay. The cells were redispersed by mild pipetting of the cell mass to which the medium was added. The cell dispersion was filtered through a 40-μm nylon mesh (Cell Strainer, Cat #35-2340, Becton Dickinson Labware, Franklin Lakes, N.J., USA) to remove the remaining cell mass, and thus a neuronal cell suspension was obtained. The neuronal cell suspension was diluted with the medium and then plated in a volume of 100 μl/well at an initial cell density of 5×10^5 cells/cm^2 in a 96-well polystyrene culture plate pre-coated with poly-L or D-lysine (Falcon Cat #35-3075, Becton Dickinson Labware, Franklin Lakes, N.J., USA coated with poly-L-lysine using the method shown below, or BIOCOAT™ cell environments Poly-D-lysine cell ware 96-well plate, Cat #35-6461, Becton Dickinson Labware, Franklin Lakes, N.J., USA). Poly-L-lysine coating was carried out as follows. 100 μg/ml of a poly-L-lysine (SIGMA P2636, St. Louis, Mo., USA) solution was aseptically prepared with a 0.15 M borate buffer. (pH 8.5). […] of the solution was added to the 96-well polystyrene culture plate and incubated at room temperature for one or more hours or at 4° C. overnight or longer. The coated 96-well polystyrene culture plate was washed with sterile water four or more times, and then dried or rinsed with, for example, sterile PBS or medium, and used for cell plating. The plated cells were cultured in the culture plate at 37° C. in 5% CO2-95% air for one day. Then, the total amount of the medium was replaced with a fresh Neurobasal™/B27/2-ME medium, and then the cells were cultured for further three days.
The drug was added to the culture plate on Day 4 of culture as follows. The total amount of the medium was removed from the wells, and 180 μl/well of Neurobasal medium not containing 2-ME and containing 2% B-27 (Neurobasal/B27) was added thereto. A solution of the test compound in dimethyl sulfoxide (hereinafter abbreviated as DMSO) was diluted with Neurobasal/B27 to a concentration 10-fold higher than the final concentration. 20 μl/well of the dilution was added to and sufficiently mixed with the medium. The final DMSO concentration was 1% or less. Only DMSO was added to the control group.
The cells were cultured for three days after addition of the compound, and the total amount of the medium was collected. […]

Compared with `COc1cc(/C=C2\CCCN([C@@H](C)c3cc(F)c(F)c(F)c3)C2=O)ccc1-n1cnc(C)n1` [Example 6, (E)-3-[1-[3-methoxy-4-(3-methyl[1,2,4]triazol-1-yl)phenyl]methylidene]-1-[(S)-1-(3,4,5-trifluorophenyl)ethyl]piperidin-2-one], `COc1cc(/C=C2\CCCN([C@H](c3cc(F)c(F)c(F)c3)[C@@H](C)O)C2=O)ccc1-n1cnc(C)n1` [Example 21, (E)-1-[(1R,2R)-2-hydroxy-1-(3,4,5-trifluorophenyl)propyl]-3-[1-[3-methoxy-4-(3-methyl[1,2,4]triazol-1-yl)phenyl]methylidene]piperidin-2-one] is 5.3-fold lower in IC50: 320 nM for the first, 60 nM for the second. The second is the more potent here.

Compared with `COc1cc(/C=C2\O[C@@H](C)CN(C(C)(C)c3ccc(F)cc3)C2=O)ccc1-n1cnc(C)n1` [Example 17, (Z)-(6S)-4-[1-(4-fluorophenyl)-1-methylethyl]-2-[1-[3-methoxy-4-(3-methyl[1,2,4]triazol-1-yl)phenyl]methylidene]-6-methylmorpholin-3-one], `COc1cc(/C=C2\O[C@@H](C)CN([C@H](c3ccc(F)cc3)[C@@H](C)O)C2=O)ccc1-n1cnc(C)n1` [Example 24, (6S)-(Z)-4-[(1R,2R)-1-(4-fluorophenyl)-2-hydroxypropyl]-2-[1-[3-methoxy-4-(3-methyl[1,2,4]triazol-1-yl)phenyl]methylidene]-6-methylmorpholin-3-one] is 1.6-fold higher in IC50: 180 nM for the first, 290 nM for the second.

`COc1cc(/C=C2\O[C@@H](C)CN([C@H](c3cc(F)c(F)c(F)c3)[C@@H](C)O)C2=O)ccc1-n1cnc(C)n1` [Example 18, (Z)-(6S)-4-[(1R,2R)-2-hydroxy-1-(3,4,5-trifluorophenyl)propyl]-2-[1-[3-methoxy-4-(3-methyl[1,2,4]triazol-1-yl)phenyl]methylidene]-6-methylmorpholin-3-one] and `COc1cc(/C=C2\OCCN([C@H](c3cc(F)c(F)c(F)c3)[C@@H](C)O)C2=O)ccc1-n1cnc(C)n1` [Example 20, (Z)-4-[(1R,2R)-2-hydroxy-1-(3,4,5-trifluorophenyl)propyl]-2-[1-[3-methoxy-4-(3-methyl[1,2,4]triazol-1-yl)phenyl]methylidene]morpholin-3-one] are within 1.5-fold of each other in IC50: 160 nM for the first, 210 nM for the second.

Compared with `COc1cc(/C=C2\OC(C)(C)CN([C@H](c3cc(F)c(F)c(F)c3)[C@@H](C)O)C2=O)ccc1-n1cnc(C)n1` [Example 19, (Z)-4-[(1R,2R)-2-hydroxy-1-(3,4,5-trifluorophenyl)propyl]-2-[1-[3-methoxy-4-(3-methyl[1,2,4]triazol-1-yl)phenyl]methylidene]-6,6-dimethylmorpholin-3-one], `COc1cc(/C=C2\OC(C)(C)CN([C@H](c3ccc(F)cc3)[C@@H](C)O)C2=O)ccc1-n1cnc(C)n1` [Example 23, (Z)-4-[(1R,2R)-1-(4-fluorophenyl)-2-hydroxypropyl]-2-[1-[3-methoxy-4-(3-methyl[1,2,4]triazol-1-yl)phenyl]methylidene]-6,6-dimethylmorpholin-3-one] is 2.7-fold higher in IC50: 150 nM for the first, 400 nM for the second. The first is the more potent here.

Going from `COc1cc(/C=C2\CCCN([C@H](c3ccc(F)cc3)[C@@H](C)O)C2=O)ccc1-n1cnc(C)n1` [Example 22, (E)-1-[(1R,2R)-1-(4-fluorophenyl)-2-hydroxypropyl]-3-{1-[3-methoxy-4-(3-methyl[1,2,4]triazol-1-yl)phenyl]methylidene}piperidin-2-one] to `COc1cc(/C=C2\CC(C)(C)CN([C@@H](C)c3ccc(F)cc3)C2=O)ccc1-n1cnc(C)n1` [Example 27, (E)-1-[(S)-1-(4-fluorophenyl)ethyl]-3-[1-[3-methoxy-4-(3-methyl[1,2,4]triazol-1-yl)phenyl]methylidene]-5,5-dimethylpiperidin-2-one], the IC50 rises from 50 nM to 270 nM (5.4-fold). The first is the more potent here.

`COc1cc(/C=C2\CC[C@H]3CC[C@@H](c4ccc(F)c(F)c4)N3C2=O)ccc1-n1cnc(C)n1` [Example 26, (E)-(3S,8aS)-3-(3,4-difluorophenyl)-6-[3-methoxy-4-(3-methyl[1,2,4]triazol-1-yl)benzylidene]hexahydroindolizin-5-one] and `COc1cc(/C=C2\CC[C@H]3CCC[C@@H](c4ccc(F)cc4)N3C2=O)ccc1-n1cnc(C)n1` [Example 28, (E)-(6S,9aR)-6-(4-fluorophenyl)-3-{1-[3-methoxy-4-(3-methyl[1,2,4]triazol-1-yl)phenyl]methylidene}octahydroquinolizin-4-one] are within 1.5-fold of each other in IC50: 380 nM for the first, 440 nM for the second.
